Measured values reported in US20200278355A1, “CONJUGATED PROTEINS AND USES THEREOF” (THE SCRIPPS RESEARCH INSTITUTE, priority 2017, published 2020).

Molecular target: T1, HA-NR0B1-C274V binding to FLAG-SNW1 (Homo sapiens, UniProt P51843, C274V)
T1 construct: expressed in transfected cells; host or cells: HEK293T (pRK5-based plasmids)
Assay: Modified in vitro binding assay: HA-NR0B1-C274V from compound-treated HEK293T cells binding to FLAG-SNW1
Type: cell-based
Details: HEK293T cells expressing HA-NR0B1-C274V treated with compound, lysate binding to FLAG-SNW1
Procedure: FIG. 5A-FIG. 5G show covalent ligand targeting C274 disrupts NR0B1 protein complexes. […] Percentage of NR0B1 bound to SNW1 was normalized to vehicle (DMSO). A hit compound BPK-26 is marked in red. […] HEK293T cells expressing the indicated proteins were treated with BPK-29 or vehicle (3 h) prior to treatment with BPK-29yne (30 min). Immunoprecipiated proteins were analyzed by in-gel fluorescence-scanning and immunoblotting. […] HEK293T cells expressing HA-NR0B1-WT or HA-NR0B1-C274V proteins were treated with DMSO or BPK-29, after which lysates were generated and evaluated for binding to FLAG-SNW1, as shown in (B).
FIG. 11A-FIG. 11F illustrate a covalent ligand targeting Cys274 disrupts NR0B1 protein complexes. […] See also FIG. 5C. […] Top: Structures of screening hit BPK-28 and synthesized derivatives. […] FLAG-immunoprecipitates were prepared from each lysate and subjected to proteolytic digestion, whereupon tryptic peptides harboring C274 were analyzed by LC-MS/MS. […] Immunoprecipitates were analyzed by in-gel fluorescence-scanning to assess BPK-29yne labeling or by immunoblot for FLAG-NR0B1. […] In a modified in vitro binding assay shown in FIG. 5B, HEK293T cells expressing HA-NR0B1-WT or an HA-NR0B1-C274V mutant were treated with DMSO or BPK-26 (20 μM, 3 h), after which lysates were and interaction with FLAG-SNW1 assessed. […]

T1 sequence (P51843 whole entry C274V): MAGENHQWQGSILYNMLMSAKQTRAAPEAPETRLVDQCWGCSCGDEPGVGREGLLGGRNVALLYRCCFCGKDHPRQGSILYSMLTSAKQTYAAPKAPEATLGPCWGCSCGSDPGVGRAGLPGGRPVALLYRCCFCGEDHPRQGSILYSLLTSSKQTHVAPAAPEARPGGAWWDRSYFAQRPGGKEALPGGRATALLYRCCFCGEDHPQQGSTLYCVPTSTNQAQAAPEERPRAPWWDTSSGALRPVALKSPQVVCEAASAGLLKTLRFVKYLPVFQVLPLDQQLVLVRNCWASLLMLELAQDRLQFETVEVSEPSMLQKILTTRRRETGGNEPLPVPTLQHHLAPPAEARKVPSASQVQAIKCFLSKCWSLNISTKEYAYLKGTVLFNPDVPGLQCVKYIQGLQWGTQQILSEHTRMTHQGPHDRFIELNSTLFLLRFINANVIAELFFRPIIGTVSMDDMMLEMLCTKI

Row | sensitivity of the C274V-NR0B1 interaction with SNW1 to ligand | Compound
1 | not sensitive | O=C(CCl)N(Cc1cccc(Cl)c1F)c1ccc(Cl)nc1 [BPK-26, 2-chloro-N-(3-chloro-2-fluorobenzyl)-N-(6-chloropyridin-3-yl)acetamide]
2 | not sensitive | O=C(c1ccc(N2CCOCC2)cc1)N1CCCC(N(Cc2ccccc2)C(=O)CCl)CC1 (centres unmarked) [BPK-29, N-benzyl-2-chloro-N-(1-(4-morpholinobenzoyl)azepan-4-yl)acetamide]
